Assay results: BigSolDB 2.1

OC[C@@H](O)C(O)[C@@H](O)CO (some centres not stated)
Details | solubility (mole fraction)
in DMF, 293.21 K | 0.0411
in DMF, 298.29 K | 0.0504
in DMF, 303.26 K | 0.0609
in DMF, 308.24 K | 0.0736
in DMF, 313.22 K | 0.0895
in DMF, 318.32 K | 0.11
in DMF, 323.2 K | 0.134
in DMF, 328.24 K | 0.166
in DMF, 333.27 K | 0.204
in acetone, 293.29 K | 0.000203
in acetone, 298.18 K | 0.00024
in acetone, 303.26 K | 0.000304
in acetone, 308.22 K | 0.000401
in acetone, 313.2 K | 0.000543
in acetone, 318.23 K | 0.000743
in acetone, 323.2 K | 0.00101
in ethanol, 293.23 K | 0.00173
in ethanol, 298.28 K | 0.00242
in ethanol, 303.17 K | 0.00309
in ethanol, 308.21 K | 0.00397
in ethanol, 313.19 K | 0.00522
in ethanol, 318.29 K | 0.00709
in ethanol, 323.24 K | 0.00966
in ethanol, 328.19 K | 0.0132
in ethanol, 333.22 K | 0.0179
in isopropanol, 293.28 K | 0.00113
in isopropanol, 298.2 K | 0.00154
in isopropanol, 303.23 K | 0.00212
in isopropanol, 308.19 K | 0.00268
in isopropanol, 313.32 K | 0.00342
in isopropanol, 318.21 K | 0.00443
in isopropanol, 323.16 K | 0.00588
in isopropanol, 328.21 K | 0.00798
in isopropanol, 333.27 K | 0.0109
in isopropanol, 338.19 K | 0.0146
in isopropanol, 343.23 K | 0.0194
in n-butanol, 293.16 K | 0.00113
in n-butanol, 298.21 K | 0.00154
in n-butanol, 303.26 K | 0.00212
in n-butanol, 308.27 K | 0.00268
in n-butanol, 313.22 K | 0.00342
in n-butanol, 318.16 K | 0.00443
in n-butanol, 323.23 K | 0.00588
in n-butanol, 328.32 K | 0.00798
in n-butanol, 333.24 K | 0.0109
in n-butanol, 338.22 K | 0.0146
in n-butanol, 343.76 K | 0.0194
in n-pentanol, 293.2 K | 0.000298
in n-pentanol, 298.18 K | 0.000483
in n-pentanol, 303.26 K | 0.000734
in n-pentanol, 308.29 K | 0.00101
in n-pentanol, 313.19 K | 0.00136
in n-pentanol, 318.24 K | 0.00188
in n-pentanol, 323.29 K | 0.00263
in n-pentanol, 328.23 K | 0.00364
in n-pentanol, 333.22 K | 0.005
in n-pentanol, 338.33 K | 0.00682
in n-pentanol, 343.24 K | 0.00903
in toluene, 293.26 K | 3.99e-05
in toluene, 298.28 K | 4.18e-05
in toluene, 303.19 K | 4.52e-05
in toluene, 308.17 K | 5e-05
in toluene, 313.23 K | 5.63e-05
in toluene, 318.33 K | 6.42e-05
in toluene, 323.21 K | 7.31e-05
in toluene, 328.22 K | 8.37e-05
in toluene, 333.3 K | 9.6e-05
in toluene, 338.16 K | 0.000109
in toluene, 343.19 K | 0.000124
in water, 293.28 K | 0.162
in water, 298.3 K | 0.18
in water, 303.17 K | 0.203
in water, 308.21 K | 0.232
in water, 313.29 K | 0.266
in water, 318.26 K | 0.302
in water, 323.25 K | 0.339
in water, 328.21 K | 0.377
